Key:
G6PC mRNA (c.648G>T) = assay: Repair of abnormal splicing of G6PC mRNA in 293A cells cotransfected with human G6PC full-length plasmid vector (pcDNA hG6PC (c.648G>T)+Int4), qRT-PCR (SYBR Green); assay type: cell-based; settings: cotransfection with plasmid vector, oligonucleotide final 20 nM, 24 hours
Method: 293A cells were maintained and cultured in a maintenance medium (DMEM, 10% FBS). In the experiment, cells were seeded on a 6-well plate at a density of 2×10^5 cells/well and on a 12-well plate at a density of 1×10^5 cells/well, and the compound of each example and a plasmid vector were simultaneously introduced on the next day, as will be described later, to be used for evaluation.
The compound of each example and a plasmid vector were cotransfected as follows.
In the case of using a 6-well plate, 250 μL of Opti-MEM Medium (Gibco), 0.50 μL of plasmid vector (1 mg/mL), and 4.0 μL (final: 20 nM) of the compound produced in each example (12.5 μM) as solution A and 250 μL of Opti-MEM Medium (Gibco) and 6.0 μL of Lipofectamine2000 (Invitrogen) as solution B were prepared per well, and solution A and solution B were mixed. […]
A human G6PC full-length plasmid vector (pcDNA hG6PC (c.648G>T)+Int4) and each oligonucleotide (15e_001, 15e_002, and the compound of Example 93 of International Publication No. WO 2004/048570 as a control) were cotransfected and evaluated by qRT-PCR (SYBR Green) for whether abnormal splicing due to G6PC (c.648G>T) was repaired. […]

ApoB mRNA = assay: Inhibition of ApoB mRNA expression in human primary hepatocytes, qRT-PCR (Taqman assay); assay type: cell-based; settings: 72 hours, wells with no compounds added taken as 100%
Method: FIG. 3 is a graph showing degradation effects of ApoB mRNA in human primary cultured hepatocytes when ApoB-ASO (white column) and an ApoB-ASO conjugate (filled column) are added to the cells. The amounts of ApoB mRNA in the cells are quantitatively evaluated relatively by qRT-PCR (corrected by the amount of actin mRNA). The Y axis represents relative values (%) in the addition groups when the amount of ApoB mRNA in untreated human primary cultured hepatocytes is taken as 100%.
FBS (Gibco) was added to a Modified Lanford Medium (Nissui Pharmaceutical Co., Ltd) to 10%, to prepare an adhesion medium. Frozen human primary hepatocytes (Gibco, Hu8105) were taken out from a liquid nitrogen tank, thawed at 37° C., then immediately poured into CHRM (Invitrogen), and gently mixed, followed by centrifugation (100 g, 10 minutes) at room temperature. The supernatant was removed with an aspirator, and then an adhesion medium heated to 37° C. was added, to prepare a cell suspension. The number of living cells was counted by an automatic counter (Bio-Rad Laboratories, Inc.), and then the cells were seeded on a collagen-coated 24-well plate (the number of living cells seeded: 1.4 to 2.1×10^5 cells/well). After culture in a CO2 incubator for 4 to 5 hours, the cells were confirmed to be adhered with a microscope, and the compound addition experiment described below was performed.
To a Modified Lanford Medium containing 10% FBS, was added the compound of Reference Example 45 with no GalNAc derivatives bound or the compound of Example 208 with a GalNAc derivative bound, to prepare a compound-containing medium with a target concentration (which was 100 nM in ApoB mRNA, expression evaluation (1) and 10 nM and 100 nM in ApoB mRNA expression evaluation (2), as described below). After the medium of human primary hepatocytes in each well cultured in the 24-well plate had been removed by aspiration, the compound-containing medium was added in an amount of 0.5 mL for each, to start incubation 72 hours later, the later-described RNA extraction experiment was performed
Following incubation, the compound-containing medium in each well of human primary hepatocytes was removed by aspiration and the cells were washed with ice-cooled PBS (0.5 mL). A 1/100 amount of 2-Mercaptoethanol was added to the RTL buffer of the RNeasy Mini QIAcube Kit (QIAGEN K.K.) to prepare a cell lysate. The cell lysate was added in an amount of 400 μL per well and collected after incubation at room temperature for 5 minutes. […]
The reverse transcription reaction was performed as follows. […] 20 μL of the reverse transcription reaction product was diluted 5 times with 80 μL of purified water and stored at −30° C. or evaluated by qRT-PCR as follows. […]

## 15e_001: oligonucleotide sequence 15e_001, the sequence of Example 8 (SEQ ID No: 40), tested as oligonucleotide (AAUCCGATGGCGAAG; chemistry not given here) [Example 15e_001]
G6PC mRNA (c.648G>T)
  abnormal splicing of G6PC mRNA due to G6PC (c.648G>T) repaired: normalized

## ApoB-ASO: oligonucleotide of the Example 24 sequence (SEQ ID No: 96) with no GalNAc units bound (AGCATTGGTATTCA; listed as DNA, further chemistry not given here)
ApoB mRNA; 10 nM
  inhibition of ApoB mRNA expression: 4.4%
ApoB mRNA; 100 nM
  inhibition of ApoB mRNA expression: 41.2%

## X^20-G^e2s-C^e2s-A^s-T^s-T^s-G^s-G^s-T^s-A^s-T^s-T^e2s-C^e2s-A^e2s-H [ApoB-ASO conjugate]
ApoB mRNA; 10 nM
  inhibition of ApoB mRNA expression: 30.3%
ApoB mRNA; 100 nM
  inhibition of ApoB mRNA expression: 68.6%

— US20220378920A1, “CONJUGATE OF GalNAc-OLIGONUCLEOTIDE FOR DELIVERY TO LIVER AND MANUFACTURING METHOD THEREOF” (DAIICHI SANKYO COMPANY, LIMITED, priority 2019, published 2022)
